{"source": "patent US20110135754A1", "about": "“CONTROL OF DISEASES IN CROPS” (priority 2008, published 2011)", "key": {"rust": {"system": "rust", "experiment": "Field spray of vanadyl citrate solution on an oats crop to control rust", "format": "in vivo", "conditions": "oats crop for stock feed, about 2 hectares, sprayed at approx. 150 mm height, approx. 7.5 grams of elemental vanadium per hectare; adjacent untreated crop failed to give any yield due to rust", "protocol": "A solution containing vanadium in the form of vanadyl citrate was prepared. The solution was sprayed onto about 2 hectares of an oats crop for stock feed, that was in early stages of growth where the crop was approximately 150 mm in height. The spray was applied in a manner such that approximately 7.5 grams of elemental vanadium per hectare, was applied to the crop."}, "[1]": {"conditions": "at 20 c; in water; cited from earlier work"}}, "data": [{"smiles": "O=C([O-])CC(O)(CC(=O)[O-])C(=O)[O-].[O]=[V+2]", "note": "[vanadyl citrate]", "values": [{"measurement": "crop yield (cuttings delivered) of treated crop", "setting": "rust", "result": "delivered three cuttings"}]}, {"smiles": "[O]=[V](=[O])[O][V](=[O])=[O]", "note": "[Vanadium Pentoxide, vanadium pentoxide]", "values": [{"measurement": "solubility", "setting": "[1]", "result": 0.8, "unit": "g/100 ml"}]}]}
